# Patent US6077872A (priority 1998, dated 2000)
# Read-outs that look alike come from different tables or passages of the source.
# Tested on: ovariectomized rats with osteoporosis
# Conditions: for Y (flexibility, tenacity): model-control 4.0 ± 1.1; for P (maximum of force at yielding point, femur strength): model-control 6.7 ± 1.2; for S (work to yield or break femur): model-control 11.3 ± 4.7
# Description: Female rats at the age of 3 months were excised of bilateral ovaries under sterilized condition, and were then fed low-calcium diet and offered with deionized water for 75 days, thus made an osteoporosis model.
# Seventy healthy rats were selected and divided randomly into five groups of 14 rats. […] Group 1-5 were administered one time per day and 6 times per week and were also fed low-calcium diet and de-ionized water. The test period was 75 days. When the test was finished, rats were killed by bleeding from bilateral thigh arteries, the separated serum was used for measurement of biochemical parameters such as Ca, P, and AKP and Tr-ACP levels in serum. The bilateral femurs of rats were stripped off and stored in refrigerator. After the measurement of the bone mineral density, the left femur was stored for analysis of biomechanical characteristics. The right femur was stored for analysis of Ca content in femur.
# Three-point bending test was done on the fresh femur iced in refrigerator with a Model WD-1 Electron Universal Test Machine under the following conditions: a span of 2.5 cm, a 25 kg sensor (1/50), a speed of 2 mm/minute. The function of load versus flexibility was recorded by a finction recorder, wherein P represented the maximum of force at yielding point, Y was flexibility indicating the tenacity of materials. K, as the rate of slope, was a rigidity parameter of materials and was associated with the degree of calcification in bone mechanics. S stood for the work to yield or break femur.
structure (smiles),measurement,setting,value
O=C(O)[C@H](O)[C@@H](O)CO [calcium L-threonate],"K (rigidity parameter, calcified degree)",100 mg element calcium/kg/d,2.71 ± 0.36
same,"Y (flexibility, tenacity)",100 mg element calcium/kg/d,4.1 ± 0.7
same,"P (maximum of force at yielding point, femur strength)",100 mg element calcium/kg/d,7.9 ± 1.0
same,S (work to yield or break femur),100 mg element calcium/kg/d,14.0
same,"K (rigidity parameter, calcified degree)",200 mg element calcium/kg/d,2.75 ± 0.31
same,"Y (flexibility, tenacity)",200 mg element calcium/kg/d,5.3 ± 1.4
same,"P (maximum of force at yielding point, femur strength)",200 mg element calcium/kg/d,8.5 ± 0.8
same,"Y (flexibility, tenacity)",300 mg element calcium/kg/d,5.9 ± 1.2
same,"P (maximum of force at yielding point, femur strength)",300 mg element calcium/kg/d,9.6 ± 1.7
same,S (work to yield or break femur),300 mg element calcium/kg/d,29.4
